Literature values in US20120245552A1, “Combination Therapy” (POP TEST CORTISOL LLC, priority 2011, published 2012).

Experiments:
[1] = test system: other related steroidal hormone receptors (such as those for estrogen and progesterone); settings: cited from earlier work
[2] = phase I and phase II clinical trials; cited from earlier work
GCR = target: T1, GCR (Homo sapiens, UniProt P04150); settings: cited from earlier work
T1 sequence (P04150 1-777): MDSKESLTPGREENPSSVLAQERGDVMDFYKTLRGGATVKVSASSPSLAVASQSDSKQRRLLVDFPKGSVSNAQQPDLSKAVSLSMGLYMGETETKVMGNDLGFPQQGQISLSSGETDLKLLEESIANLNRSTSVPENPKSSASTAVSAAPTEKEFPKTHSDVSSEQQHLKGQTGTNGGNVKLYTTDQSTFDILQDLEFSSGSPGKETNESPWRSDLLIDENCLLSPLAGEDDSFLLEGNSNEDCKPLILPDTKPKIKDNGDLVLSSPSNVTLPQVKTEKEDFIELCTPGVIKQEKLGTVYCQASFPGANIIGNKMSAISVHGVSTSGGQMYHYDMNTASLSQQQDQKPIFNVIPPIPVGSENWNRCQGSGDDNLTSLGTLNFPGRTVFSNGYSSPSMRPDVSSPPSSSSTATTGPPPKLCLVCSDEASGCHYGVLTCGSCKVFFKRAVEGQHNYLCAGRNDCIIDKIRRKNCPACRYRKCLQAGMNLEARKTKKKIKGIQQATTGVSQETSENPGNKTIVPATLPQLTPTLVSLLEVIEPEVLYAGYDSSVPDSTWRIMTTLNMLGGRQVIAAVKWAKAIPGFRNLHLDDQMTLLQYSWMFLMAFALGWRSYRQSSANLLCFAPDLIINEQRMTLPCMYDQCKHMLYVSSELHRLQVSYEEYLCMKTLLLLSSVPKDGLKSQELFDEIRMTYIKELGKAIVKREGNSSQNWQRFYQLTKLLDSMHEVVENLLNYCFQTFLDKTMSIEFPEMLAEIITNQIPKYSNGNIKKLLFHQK

CC#C[C@]1(O)CC[C@H]2[C@@H]3CCC4=CC(=O)CCC4=C3[C@@H](c3ccc4c(c3)OCO4)C[C@@]21C [ORG 34517, (11β,17β)-11-(1,3-benzodioxol-5-yl)-17-hydroxy-17-(1-propynyl)estra-4,9-dien-3-one]
cross-binding to other related steroidal hormone receptors [1]: without significant cross-binding | significant toxicities and side effects [2]: none were identified | GCR binding affinity (GCR): high
